Results: article PMC5074247 (Biopharmaceutics & Drug Disposition, 2016)
Read-outs that look alike come from different tables or passages of the source.

Legend:
[1] = cited from earlier work
[2] = cited from earlier work; remark: listed apart in the source
[3] = ref manufacturer's interview form; cited from earlier work
[4] = system: DPP‐4; details: against DPP‐4 ref 2; cited from earlier work
[5] = ZDF rat model; compared with sitagliptin ref 39; cited from earlier work
[6] = intravenously administered to rats at doses above 3 mg/kg ref 23; cited from earlier work
[7] = format: in vivo, Sprague–Dawley rats; details: oral 1 mg/kg [^14C]teneligliptin, SD rats

Cn1c(=O)cc(N2CCC[C@@H](N)C2)n(Cc2ccccc2C#N)c1=O [Alogliptin]
V ss ([1]; intravenous administration to rats ref 19): 3.5 19 l/kg | K p of radioactivity ([2]; Heart, oral 3 mg/kg, 4 h, rats ref 22): 2.36 | K p of radioactivity ([2]; Kidney, oral 3 mg/kg, 4 h, rats ref 22): 29.7 | K p of radioactivity ([2]; Liver, oral 3 mg/kg, 4 h, rats ref 22): 17.3 | K p of radioactivity ([2]; Lung, oral 3 mg/kg, 4 h, rats ref 22): 8.6 | K p of radioactivity ([2]; Pancreas, oral 3 mg/kg, 4 h, rats ref 22): 4.94 | pKa [3]: 8.5

Cc1cc2ncc(C(=O)NCC(C)(C)NCC(=O)N3CCC[C@H]3C#N)cn2n1.Cl [Anagliptin, N‐[2‐({2‐[(2S)‐2‐cyanopyrrolidin‐1‐yl]‐2‐oxoethyl}amino)‐2‐methylpropyl]‐2‐methylpyrazolo[1,5‐a]pyrimidine‐6‐carboxamide hydrochloride]
V ss ([1]; intravenous administration to rats ref 2): 0.68 L/kg | IC50 [4]: 3.8 nM | K p of radioactivity ([2]; Heart, oral 10 mg/kg, 6 h, rats ref 21): 0.74 | K p of radioactivity ([2]; Kidney, oral 10 mg/kg, 6 h, rats ref 21, 10 mg/kg): 6.71 | K p of radioactivity ([2]; Liver, oral 10 mg/kg, 6 h, rats ref 21): 4.36 | K p of radioactivity ([2]; Lung, oral 10 mg/kg, 6 h, rats ref 21): 1.50 | K p of radioactivity ([2]; Pancreas, oral 10 mg/kg, 6 h, rats ref 21): 0.81 | pKa [3]: 6.7

CC#CCn1c(N2CCC[C@@H](N)C2)nc2c1c(=O)n(Cc1nc(C)c3ccccc3n1)c(=O)n2C [Linagliptin, 8‐(3‐I‐aminopiperidin‐1‐yl)‐7‐but‐2‐ynyl‐3‐methyl‐1‐(4‐methyl‐quinazolin‐2‐ylmethyl)‐3,7‐dihydropurine‐2,6‐dione]
V ss ([1]; intravenous administration to rats ref 23): 50.3 L/kg | K p of radioactivity ([2]; Heart, oral 2 mg/kg, 4 h, rats ref 23): 4.78 | K p of radioactivity ([2]; Kidney, oral 2 mg/kg, 4 h, rats ref 23, 2 mg/kg): 113 | K p of radioactivity ([2]; Kidney, oral 2 mg/kg, 4 h, rats ref 23, listed as linagliptin, 2 mg/kg): around 100 | K p of radioactivity ([2]; Liver, oral 2 mg/kg, 4 h, rats ref 23): 42.3 | K p of radioactivity ([2]; Lung, oral 2 mg/kg, 4 h, rats ref 23): 11.1 | acetylcholine‐induced vascular relaxation [5]: significantly stronger | tissue distribution [6]: non‐linear tissue distribution

Cc1cc(N2CCN(C3CNC(C(=O)N4CC[S+]([O-])C4)C3)CC2)n(-c2ccccc2)n1 (stereo not shown) [M1]
metabolite detection in plasma ([7]; plasma, 0.5 h): detected at low levels

O=C(C1CC(N2CCN(c3cc(CO)nn3-c3ccccc3)CC2)CN1)N1CCSC1 (stereo not shown) [M4]
metabolite detection in kidney ([7]; kidney, 0.5, 24 and 72 h): detected in trace concentrations

N#C[C@@H]1C[C@@H]2C[C@@H]2N1C(=O)[C@@H](N)C12CC3CC(CC(O)(C3)C1)C2 [Saxagliptin]
V ss ([1]; intravenous administration to rats ref 20): 5.2 20 l/kg | pKa [3]: 7.3

N[C@@H](CC(=O)N1CCn2c(nnc2C(F)(F)F)C1)Cc1cc(F)c(F)cc1F [Sitagliptin, (2R)‐4‐Oxo‐4‐[3‐(trifluoromethyl)‐5,6‐dihydro[1,2,4]‐triazolo[4,3‐a]pyrazin‐7(8H)‐yl]‐1‐(2,4,5‐trifluorophenyl)butan‐2‐amine]
V ss ([1]; intravenous administration to rats ref 25): 8.8 25 l/kg | K p of radioactivity ([2]; Heart, oral 5 mg/kg, 4 h, rats ref 25): 2.73 | K p of radioactivity ([2]; Kidney, oral 5 mg/kg, 4 h, rats ref 25): 14.7 | K p of radioactivity ([2]; Liver, oral 5 mg/kg, 4 h, rats ref 25): 22.0 | K p of radioactivity ([2]; Lung, oral 5 mg/kg, 4 h, rats ref 25): 9.09 | K p of radioactivity ([2]; Pancreas, oral 5 mg/kg, 4 h, rats ref 25): 5.69 | pKa [3]: 7.7

N#C[C@@H]1CCCN1C(=O)CNC12CC3CC(CC(O)(C3)C1)C2 [Vildagliptin, 1‐[[(3‐Hydroxy‐1‐adamantyl)amino]acetyl]‐2‐cyano‐(S)‐pyrrolidine]
K p of radioactivity ([2]; Heart, oral 100 mg/kg, 4 h, rats ref 26): 1.48 | K p of radioactivity ([2]; Kidney, oral 100 mg/kg, 4 h, rats ref 26): 13.4 | K p of radioactivity ([2]; Liver, oral 100 mg/kg, 4 h, rats ref 26): 13.6 | K p of radioactivity ([2]; Lung, oral 100 mg/kg, 4 h, rats ref 26): 2.60 | K p of radioactivity ([2]; Pancreas, oral 100 mg/kg, 4 h, rats ref 26): 3.29 | pKa [3]: 7.6
